33 molecules from patent US8829030B2 (priority 2002, dated 2014) can be followed below.

Like-named read-outs stand apart in the source and are kept apart here.

The experiment has as its target recombinant HCV RNA-dependent RNA polymerase (NS5B protein) (Hepatitis C virus genotype 1b, UniProt P26663). The experiment is described as follows: biochemical. On the set-up: species or system HCV-Bk strain.
Where [1] appears, read: read-out: Activity (polymerase activity, IC50).

Sequence of recombinant HCV RNA-dependent RNA polymerase (NS5B protein) (P26663 2420-3010 limits assumed): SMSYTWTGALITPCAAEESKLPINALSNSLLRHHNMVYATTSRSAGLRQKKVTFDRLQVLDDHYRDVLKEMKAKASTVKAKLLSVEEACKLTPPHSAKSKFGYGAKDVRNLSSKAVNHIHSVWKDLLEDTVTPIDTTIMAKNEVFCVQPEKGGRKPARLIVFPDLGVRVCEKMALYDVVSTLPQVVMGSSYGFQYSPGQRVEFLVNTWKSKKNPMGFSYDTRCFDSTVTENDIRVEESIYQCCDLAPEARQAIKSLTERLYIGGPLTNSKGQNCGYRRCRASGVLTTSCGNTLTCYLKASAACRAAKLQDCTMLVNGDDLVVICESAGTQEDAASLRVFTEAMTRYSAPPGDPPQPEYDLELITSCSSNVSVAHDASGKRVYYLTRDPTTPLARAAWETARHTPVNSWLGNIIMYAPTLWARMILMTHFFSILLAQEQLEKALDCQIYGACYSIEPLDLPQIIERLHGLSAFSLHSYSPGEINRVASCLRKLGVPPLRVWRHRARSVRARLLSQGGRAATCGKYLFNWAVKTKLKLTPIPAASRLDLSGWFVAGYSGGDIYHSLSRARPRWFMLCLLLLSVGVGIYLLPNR

On to `CC1CCC(C(=O)N(c2cc(-c3ccccc3)sc2C(=O)O)C2CCN(C(=O)C(N)=O)CC2)CC1` (stereo not drawn) [Compound 83, 3-[(1-aminooxalyl-piperidin-4-yl)-(4-methyl-cyclohexanecarbonyl)-amino]-5-phenyl-thiophene-2-carboxylic acid], for which the IC50 under setting [1] was under 5 µM.

For the molecule `CC1CCC(C(=O)N(CC2CCCN(C)C2)c2cc(-c3ccc(F)cc3)sc2C(=O)O)CC1` (stereo not drawn) [Compound 69, 5-(4-fluorophenyl)-((4-methyl-cyclohexanecarbonyl)-1-(methyl-piperidin-3-ylmethyl)-amino)-thiophene-2-carboxylic acid], the IC50 was under 5 µM.

As to `CC1=CCC(C(=O)N(c2cc(-c3ccc(F)cc3)sc2C(=O)O)C(C)C)CC1` (stereo not drawn) [Compound 53, 5-(4-fluoro-phenyl)-3-[isopropyl-(4-methyl-cyclohex-3-enecarbonyl)-amino]-thiophene-2-carboxylic acid], the IC50 was under 5 µM.

With `C[C@H]1CC[C@H](C(=O)N(c2cc(-c3ccccc3)sc2C(=O)O)[C@H]2CC[C@H](O)CC2)CC1` [Compound 15, 3-[(trans-4-Hydroxy-cyclohexyl)-(trans-4-methyl-cyclohexanecarbonyl)-amino]-5-phenyl-thiophene-2-carboxylic acid], the IC50 is under 5 µM.

On to `C[C@H]1CC[C@H](C(=O)N(c2cc(-c3ccccc3)sc2C(=O)O)C2CCS(=O)(=O)CC2)CC1` [Compound 37, 3-[(1,1-Dioxo-tetrahydro-thiopyran-4-yl)-(trans-4-methyl-cyclohexanecarbonyl)-amino]-5-phenyl-thiophene-2-carboxylic acid], for which the IC50 is under 5 µM.

On to `CC1CCC(C(=O)N(Cc2cccnc2)c2cc(-c3ccccc3)sc2C(=O)O)CC1` (stereo not drawn) [Compound 3, 3-[(4-methyl-cyclohexanecarbonyl)-pyridin-3-ylmethyl-amino]-5-phenyl-thiophene-2-carboxylic acid], for which the IC50 was under 5 µM.

Take `CC1CCC(C(=O)N(c2cc(-c3ccccc3)sc2C(=O)O)C2CCC(=NO)CC2)CC1` (stereo not drawn) [Compound 16, 3-[(4-hydroxyimino-cyclohexyl)-(4-methyl-cyclohexanecarbonyl)-amino]-5-phenyl-thiophene-2-carboxylic acid]: the IC50 is under 5 µM.

Regarding `CC(=O)c1ccc(-c2cc(N(C(=O)[C@H]3CC[C@H](C)CC3)[C@H]3CC[C@H](O)CC3)c(C(=O)O)s2)s1` [Compound 80, 5′-acetyl-4-[(4-hydroxy-cyclohexyl)-(4-methyl-cyclohexanecarbonyl)-amino]-[2,2′]bithiophenyl-5-carboxylic acid], the IC50 is under 5 µM.

Take `CC1CCC(C(=O)N(c2cc(-c3ccccc3)sc2C(=O)O)[C@H]2CC[C@H](C(=O)O)CC2)CC1` (stereo partly drawn) [Compound 76, 3-[(4-carboxy-cyclohexyl)-(4-methyl-cyclohexanecarbonyl)-amino]-5-phenyl-thiophene-2-carboxylic acid]: the IC50 is under 5 µM.

Turning to `CNC(=O)N1CCC(N(C(=O)C2CCC(C)CC2)c2cc(-c3ccccc3)sc2C(=O)O)CC1` (stereo not drawn) [Compound 74, 3-[(1-methylcarbamoyl-piperidin-4-yl)-(4-methyl-cyclohexanecarbonyl)-amino]-5-phenyl-thiophene-2-carboxylic acid], the IC50 under setting [1] is under 5 µM.

Consider `CCC(C)C(CN)N(C(=O)c1ccc(Cl)cc1Cl)c1cc(-c2ccccc2)sc1C(=O)O` (stereo not drawn) [Compound 20, 3-[(1-aminomethyl-2-methyl-butyl)-(2,4-dichloro-benzoyl)-amino]-5-phenyl-thiophene-2-carboxylic acid], for which the IC50 is 5 to 20 µM.

As for `CC1CCC(C(=O)N(c2cc(-c3ccc(Cl)cc3)sc2C(=O)O)C2CCC(O)CC2)CC1` (stereo not drawn) [Compound 59, 5-(4-chloro-phenyl)-3-[(4-hydroxy-cyclohexyl)-(4-methyl-cyclohexanecarbonyl)-amino]-thiophene-2-carboxylic acid], the IC50 is under 5 µM.

Turning to `CC1CCC(C(=O)N(Cc2ccccn2)c2cc(-c3ccccc3)sc2C(=O)O)CC1` (stereo not drawn) [Compound 14, 3-[(4-methyl-cyclohexanecarbonyl)-pyridin-2-ylmethyl-amino]-5-phenyl-thiophene-2-carboxylic acid], the IC50 is under 5 µM.

With `CC1CCC(C(=O)N(c2cc(-c3ccccc3)sc2C(=O)O)C2CCC(=O)CC2)CC1` (stereo not drawn) [Compound 13, 3-[(4-methyl-cyclohexanecarbonyl)-(4-oxo-cyclohexyl)-amino]-5-phenyl-thiophene-2-carboxylic acid], the IC50 is under 5 µM.

As to `CC1CCC(C(=O)N(c2cc(-c3ccccc3)sc2C(=O)O)C(C)CN=[N+]=[N-])CC1` (stereo not drawn) [Compound 32, 3-[(2-azido-1-methyl-ethyl)-(4-methyl-cyclohexanecarbonyl)-amino]-5-phenyl-thiophene-2-carboxylic acid], the IC50 is under 5 µM.

Regarding `CC1CCC(F)(C(=O)N(c2cc(-c3ccccc3)sc2C(=O)O)C(C)C)CC1` (stereo not drawn) [Compound 9, Trans-3-[(1-Fluoro-4-methyl-cyclohexanecarbonyl)-isopropyl-amino]-5-phenyl-thiophene-2-carboxylic acid], the half-maximal inhibitory concentration (IC50) was under 5 µM.

Consider `CC(C)N(C(=O)[C@@H]1CC[C@@H](C)C[C@@H]1O)c1cc(-c2ccc(F)cc2)sc1C(=O)O` [Compound 24], for which the IC50 was under 5 µM.

`C[C@H]1CC[C@H](C(=O)N(c2cc(-c3ccc(F)cc3)sc2C(=O)O)[C@H]2CC[C@@H](O)CC2)CC1` [Compound 73, 5-(4-fluoro-phenyl)-3-[(4-hydroxy-cyclohexyl)-(4-methyl-cyclohexanecarbonyl)-amino]-thiophene-2-carboxylic acid]: the IC50 is under 5 µM.

With `C[C@H]1CC[C@H](C(=O)N(c2cc(-c3ccccc3)sc2C(=O)O)[C@H]2CC[C@@H](O)CC2)CC1` [Compound 47, 3-[(4-methyl-cyclohexanecarbonyl)-(4-hydroxy-cyclohexyl)-amino]-5-phenyl-thiophene-2-carboxylic acid], the IC50 is under 5 µM.

In the case of `CC1CCC(C(=O)N(c2cc(-c3ccccc3)sc2C(=O)O)C2CCNC(=O)CC2)CC1` (stereo not drawn) [Compound 82, 3-[(4-methyl-cyclohexanecarbonyl)-(7-oxo-azepan-4-yl)-amino]-5-phenyl-thiophene-2-carboxylic acid], the IC50 under setting [1] was under 5 µM.

In the case of `CC1CCC(C(=O)N(c2cc(-c3ccccc3)sc2C(=O)O)C2CCC[NH+](C)CC2)CC1` (stereo not drawn) [Compound 49, 4-[(2-carboxy-5-phenyl-thiophen-3-yl)-(4-methyl-cyclohexanecarbonyl)-amino]-1-methyl-azepanium chloride], the IC50 is under 5 µM.

For the molecule `CC(=O)NC1CC(C)CCC1C(=O)N(c1cc(-c2ccccc2)sc1C(=O)O)C(C)C` (stereo not drawn) [Compound 12, 3-[(2-acetylamino-4-methyl-cyclohexanecarbonyl)-isopropyl-amino]-5-phenyl-thiophene-2-carboxylic acid], the IC50 is 5 to 20 µM.

As to `CC1CCC(C(=O)N(CC2CCCN(C)C2)c2cc(-c3ccccc3)sc2C(=O)O)CC1` (stereo not drawn) [Compound 35, 3-{[(2-carboxy-5-phenyl-thiophen-3-yl)-(4-methyl-cyclohexanecarbonyl)-amino]-methyl}-1-methyl-piperidinium chloride], the IC50 is under 5 µM.

As to `CCN(C(=O)c1ccc(C)cc1)c1cc(-c2ccccc2)sc1C(=O)O` [Compound 84, 3-[ethyl-(4-methyl-benzoyl)-amino]-5-phenyl-thiophene-2-carboxylic acid], the IC50 was under 5 µM.

In the case of `CC1CCC(C(=O)N(c2cc(-c3ccccc3)sc2C(=O)O)C(C)CN)CC1` (stereo not drawn) [Compound 36, 3-[(2-amino-1-methyl-ethyl)-(4-methyl-cyclohexanecarbonyl)-amino]-5-phenyl-thiophene-2-carboxylic acid], the IC50 was under 5 µM.

Take `CC1=CCC(C(=O)N(c2cc(-c3ccccc3)sc2C(=O)O)C(C)C)CC1` (stereo not drawn) [Compound 17, 3-[isopropyl-(4-methyl-cyclohex-3-enecarbonyl)-amino]-5-phenyl-thiophene-2-carboxylic acid]: the IC50 is under 5 µM.

In the case of `COc1ccc(CN2CCC(N(c3cc(-c4ccccc4)sc3C(=O)O)C(=O)[C@H]3CC[C@H](C)CC3)CC2=O)cc1` (stereo partly drawn) [Compound 42, 3-[[1-(4-methoxy-benzyl)-2-oxo-piperidin-4-yl]-(4-methyl-cyclohexanecarbonyl)-amino]-5-phenyl-thiophene-2-carboxylic acid], the IC50 is under 5 µM.

In the case of `C[C@H]1CC[C@H](C(=O)N(c2cc(-c3ccccc3)sc2C(=O)O)[C@H]2CC[C@](C)(O)CC2)CC1` [Compound 88, 3-[(4-hydroxy-4-methyl-cyclohexyl)-(4-methyl-cyclohexanecarbonyl)-amino]-5-phenyl-thiophene-2-carboxylic acid], the IC50 is under 5 µM.

Consider `COc1ccc(-c2cc(N(C(=O)C3CCC(C)CC3O)C(C)C)c(C(=O)O)s2)cc1` (stereo not drawn) [Compound 62, 3-[(2-hydroxy-4-methyl-cyclohexanecarbonyl)-isopropyl-amino]-5-(4-methoxy-phenyl)-thiophene-2-carboxylic acid], for which the IC50 is under 5 µM.

In the case of `CC1CCC(C(=O)N(c2cc(-c3cccc(F)c3)sc2C(=O)O)C(C)C)CC1` (stereo not drawn) [Compound 5, 5-(3-fluoro-phenyl)-3-[isopropyl-(4-methyl-cyclohexanecarbonyl)-amino]-thiophene-2-carboxylic acid], the IC50 under setting [1] was under 5 µM.

As for `CC(=O)c1ccc(-c2cc(N(C(=O)[C@H]3CC[C@H](C)CC3)[C@H]3CC[C@H](O)CC3)c(C(=O)O)s2)cc1` [Compound 85, 5-(4-acetyl-phenyl)-3-[(4-hydroxy-cyclohexyl)-(4-methyl-cyclohexanecarbonyl)-amino]-thiophene-2-carboxylic acid], the IC50 was under 5 µM.

Take `CC(C)N(C(=O)C1=CC[C@H](C)CC1)c1cc(-c2ccc(F)cc2)sc1C(=O)O` [Compound 26, (4R)-5-(4-Fluoro-phenyl)-3-[isopropyl-(4-methyl-cyclohex-1-enecarbonyl)-amino]-thiophene-2-carboxylic acid]: the IC50 was under 5 µM.

Regarding `CC1CCC(C(=O)N(c2cc(-c3ccccc3)sc2C(=O)O)N(C)C)CC1` (stereo not drawn) [Compound 64, 3-[N′,N′-dimethyl-n-(4-methyl-cyclohexanecarbonyl)-hydrazino]-5-phenyl-thiophene-2-carboxylic acid], the IC50 is under 5 µM.

For orientation: IC50 means the midpoint of a concentration-inhibition curve.
